Test results published in patent US20260234115A1, “LIPID COMPOUNDS, COMPOSITIONS, AND USES THEREOF” (Liberate Bio, Inc., priority 2023, published 2026).
Marks after values point to notes of the source that are not given here.

Assays:
mouse organs = test: In vivo activity screening in mice: organ mean total flux (p/s) of luciferase activity after injection of F2 LNP pools (Table 6, FIG. 7A-7C); settings: Mouse 1, dose 0.3 mg/kg, luciferase mRNA
Method in brief: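 C57BL/6J mice given one tail-vein injection of pooled Formulation F2 LNPs carrying firefly luciferase mRNA (0.25-3 mg/kg) in PBS. At 4-6 h, s.c. D-luciferin given; organs imaged ex vivo by IVIS within 10-15 min, after saline cardiac perfusion. Mean total flux (p/s) per organ ROI.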

[1] = Dynamic light scattering: LNP particle size and PDI; assay type: physicochemical; settings: for Particle Size (nm) / PDI: LNP compositions for in vivo mouse study; for Particle Size (nm): four formulations (F1-F4) of the lipid compound pooled, or pools of four compounds (sixteen compositions); for PDI: four formulations (F1-F4) pooled, or pools of four compounds; for PDI N/P:6 / Size (nm) N/P:6 / PDI N/P:3 / Size (nm) N/P:3: LNP
Method in brief: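 The LNPs were made by microfluidic mixing of the lipids in ethanol with mRNA in pH 4.0 citrate, then dialyzed into PBS pH 7.4. They were diluted in PBS pH 7.4, and particle size and PDI were measured by dynamic light scattering.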

[2] = Plate-based fluorescence (RiboGreen) assay: nucleic acid cargo content and encapsulation efficiency of LNPs; assay type: physicochemical; settings: for EE % / mRNA Content: LNP compositions for in vivo mouse study, four formulations (F1-F4) pooled, or pools of four compounds; for EE (%) N/P:6 / EE (%) N/P:3: LNP
Method in brief: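 LNPs made by microfluidic mixing of ethanolic lipids with mRNA in pH 4.0 citrate, dialyzed into PBS pH 7.4. Cargo quantified by RiboGreen fluorescence against a standard curve: Triton-lysed samples give total, TE-only samples give free cargo; encapsulation efficiency from their ratio.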

Row | SMILES | Organ Mean Total Flux Femur (mouse organs) | Organ Mean Total Flux Heart (mouse organs) | Organ Mean Total Flux Kidney (mouse organs) | Organ Mean Total Flux Liver (mouse organs) | Organ Mean Total Flux Lung (mouse organs) | Organ Mean Total Flux Muscle (mouse organs) | Organ Mean Total Flux Pancreas (mouse organs) | Organ Mean Total Flux Spleen (mouse organs) | Particle Size (nm) [1] [nm] | PDI [1] | PDI N/P:6 ([1]; Formulation F1, N/P 6) | Size (nm) N/P:6 ([1]; Formulation F1, N/P 6) [nm] | PDI N/P:6 ([1]; Formulation F2, N/P 6) | Size (nm) N/P:6 ([1]; Formulation F2, N/P 6) [nm] | PDI N/P:6 ([1]; Formulation F3, N/P 6) | Size (nm) N/P:6 ([1]; Formulation F3, N/P 6) [nm] | PDI N/P:6 ([1]; Formulation F4, N/P 6) | Size (nm) N/P:6 ([1]; Formulation F4, N/P 6) [nm] | EE % [2] [%] | mRNA Content [2] [µg/mL] | also measured
1 | CCCCC/C=C\CCOC(=O)CCCCCCC(=O)OCC(COC(=O)CCCCCCC(=O)OCC/C=C\CCCCC)(COC(=O)CCC(CCCCCC)OC(=O)NCCN1CCCC1)COC(=O)CC12CC3CC(CC(C3)C1)C2 (stereo not drawn) [Compound 11, O8-[2-[[2-(1-adamantyl)acetyl]oxymethyl]-2-[[8-[(Z)-non-3-enoxy]-8-oxo-octanoyl]oxymethyl]-3-[4-(2-pyrrolidin-1-ylethylcarbamoyloxy)decanoyloxy]propyl]O1-[(Z)-non-3-enyl]octanedioate] | 5.3 p/s (×10^6) | 2.3 p/s (×10^6) | 2.4 p/s (×10^6) | 5140 p/s (×10^6) | 27.7 p/s (×10^6) | 21.8 p/s (×10^6) | 6.0 p/s (×10^6) | 32.3 p/s (×10^6) | 86 | 0.13 | 0.16 | 77 ± 7 | 0.11 | 88 ± 3 | 0.14 | 91 ± 1 | 0.30 | 74 ± 2 | 97 | 105 | EE (%) N/P:6 ([2]; Formulation F1, N/P 6): 100%; EE (%) N/P:6 ([2]; Formulation F2, N/P 6): 100%; EE (%) N/P:6 ([2]; Formulation F3, N/P 6): 97%; EE (%) N/P:6 ([2]; Formulation F4, N/P 6): 99%
2 | CCCCC/C=C\C/C=C\CCCCCCCC(=O)OCC(COC(=O)CCCCCCC/C=C\C/C=C\CCCCC)(COC(=O)CCC(CCCCCC)OC(=O)NCCN1CCCC1)COC(=O)CCC(OCCCCCCCC)OCCCCCCCC (stereo not drawn) [Compound 6, [2-(4,4-dioctoxybutanoyloxymethyl)-2-[[(9Z,12Z)-octadeca-9,12-dienoyl]oxymethyl]-3-[4-(2-pyrrolidin-1-ylethylcarbamoyloxy)decanoyloxy]propyl](9Z,12Z)-octadeca-9,12-dienoate] | 6.1 p/s (×10^6) | 2.1 p/s (×10^6) | 1.3 p/s (×10^6) | 2966 p/s (×10^6) | 17.6 p/s (×10^6) | 8.3 p/s (×10^6) | 2.1 p/s (×10^6) | 14.1 p/s (×10^6) | 77.9 | 0.107 | 0.172 | 69 ± 3 | 0.012 | 83 ± 1 | 0.078 | 85 ± 1 | 0.081 | 63 ± 1 | 99 | 100.1 | PDI N/P:3 ([1]; Formulation F1, N/P 3): 0.09; Size (nm) N/P:3 ([1]; Formulation F1, N/P 3): 77 ± 2 nm; PDI N/P:3 ([1]; Formulation F2, N/P 3): 0.027; Size (nm) N/P:3 ([1]; Formulation F2, N/P 3): 89 ± 2 nm; PDI N/P:3 ([1]; Formulation F3, N/P 3): 0.059; Size (nm) N/P:3 ([1]; Formulation F3, N/P 3): 105 ± 5 nm; PDI N/P:3 ([1]; Formulation F4, N/P 3): 0.084; Size (nm) N/P:3 ([1]; Formulation F4, N/P 3): 65 ± 1 nm; EE (%) N/P:3 ([2]; Formulation F1, N/P 3): 99%; EE (%) N/P:6 ([2]; Formulation F1, N/P 6): 100%; EE (%) N/P:3 ([2]; Formulation F2, N/P 3): 99%; EE (%) N/P:6 ([2]; Formulation F2, N/P 6): 100%; EE (%) N/P:3 ([2]; Formulation F3, N/P 3): 95%; EE (%) N/P:6 ([2]; Formulation F3, N/P 6): 100%; EE (%) N/P:3 ([2]; Formulation F4, N/P 3): 98%; EE (%) N/P:6 ([2]; Formulation F4, N/P 6): 100%
